In patent US20250115654A1, “PHARMACEUTICAL COMPOSITION OF GLP-1 RECEPTOR AND GIP RECEPTOR DUAL AGONIST, AND USE THEREOF” (FUJIAN SHENGDI PHARMACEUTICAL CO., LTD., priority 2021, published 2025):
Numbered stars: 1 amine (or outer) side, 2 acyl side, 3 side chain; on linkers, the order of the positions; unused ones are H or OH. Square brackets hold non-standard residues; d marks the D form. Side chains are listed from the residue outwards. Peptide text beside a SMILES is read from it. * marks the point of attachment. C20 diacid = O=C(O)CCCCCCCCCCCCCCCCCCC(=O)*; γGlu = O=C(O)[C@H](CCC(=O)[*:2])N[*:1]; AEEA = NCCOCCOCC(=O)O; Aib = CC(C)(N)C(=O)O

Assays:
[1] = test system: DIO mice; experiment: Food intake of DIO (diet-induced obesity) mice; type: in vivo, C57BL/6 mice
Description: High-fat food-induced-obesity male C57BL/6 mice (weighing 35-55 g, aged 10-12 weeks, purchased from Shanghai Jiesijie Laboratory Animal Co., Ltd.) were tested. […] According to the experimental design, the body weight of each mouse was measured and recorded on day 0, day 3, day 6, and so on to day 27, the average body weight of each group of mice was calculated, and body weight change curves were plotted by taking the body weight on the first day as the standard. At the end, the fat and other visceral organs of each part of the mice were taken out and weighed, and the viscera/brain ratio for fat in each part of each mouse was calculated. The effect of the drug on the fat was determined by comparing the change in the viscera/brain ratio for fat of different parts of each group of mice.
The food intake of mice in each group was measured daily during the experiment.

[2] = test system: db/db mice; experiment: Glucose metabolism level of db/db mice (fasting and random blood glucose, glycated hemoglobin); type: in vivo, C57BL/KsJ-db/db mice; settings: for Glycated hemoglobin (%, mean ± SD): end of experiment day 28
Description: Each administration group had 10 db/db mice. According to the experimental design, tail vein blood was collected by needle pricking on days 0, 7, 14, 21, and 28 and determined for fasting blood glucose levels with a glucometer and glucose dipsticks, and the mice were fasted 6 h prior to the blood collection at each time point. Tail vein blood was collected by needle pricking on days 3, 10, 17, 24, and 27 and randomly determined for blood glucose levels with a glucometer. Finally, at the end of the experiment on day 28, all the animals in the administration groups were subjected to 2-5% isoflurane inhalation anesthesia, and 100 μL of whole blood was collected through the orbit of each mouse using an EDTA-K2 anticoagulation tube and used for the determination of glycated hemoglobin.

## CC[C@H](C)[C@H](NC(=O)[C@H](CCCCN)NC(=O)[C@H](CCC(=O)O)NC(=O)[C@H](CCCCNC(=O)COCCOCCNC(=O)COCCOCCNC(=O)CC[C@H](NC(=O)CCCCCCCCCCCCCCCCCCC(=O)O)C(=O)O)NC(=O)[C@H](Cc1ccc(O)cc1)NC(=O)[C@@H](NC(=O)[C@H](CO)NC(=O)[C@H](Cc1ccc(O)cc1)NC(=O)[C@H](CC(=O)O)NC(=O)[C@H](CO)NC(=O)[C@@H](NC(=O)[C@H](Cc1ccccc1)NC(=O)[C@@H](NC(=O)CNC(=O)[C@H](CCC(=O)O)NC(=O)C(C)(C)NC(=O)[C@@H](N)Cc1ccc(O)cc1)[C@@H](C)O)[C@@H](C)O)[C@@H](C)CC)C(=O)N[C@@H](C)C(=O)N[C@@H](C)C(=O)N[C@@H](CCC(N)=O)C(=O)N[C@@H](CCC(=O)O)C(=O)N[C@@H](Cc1ccccc1)C(=O)N[C@H](C(=O)N[C@@H](CC(N)=O)C(=O)N[C@@H](Cc1c[nH]c2ccccc12)C(=O)N[C@@H](CC(C)C)C(=O)N[C@@H](CC(C)C)C(=O)N[C@@H](C)C(=O)NCC(=O)NCC(=O)N1CCC[C@H]1C(=O)N[C@@H](CO)C(=O)N[C@@H](CO)C(=O)NCC(=O)N[C@@H](C)C(=O)N1CCC[C@H]1C(=O)N1CCC[C@H]1C(=O)N1CCC[C@H]1C(=O)N[C@@H](CO)C(N)=O)C(C)C [Compound 18#] (H-Y[Aib]EGTFTSDYSIYK([AEEA-AEEA-γGlu-C20 diacid])EKIAAQEFVNWLLAGGPSSGAPPPS-NH2)
[1]; 10 nmol/kg, within 5 days after the administration
  cumulative food intake: 3.9 g
[1]; 100 nmol/kg, 28 days after the administration
  cumulative food intake: 36.7 g
[1]; 100 nmol/kg, day 1 after administration
  daily food intake ration: 0.2 ± 0.1 g
[1]; 100 nmol/kg, day 1 after administration, listed as 18#
  daily food intake ration: 0.2 g
[1]; 100 nmol/kg, day 2 after administration
  daily food intake ration: 0.1 ± 0.1 g
[1]; 100 nmol/kg, day 3 after administration
  daily food intake ration: 0.4 ± 0.1 g
[1]; 100 nmol/kg, day 4 after administration
  daily food intake ration: 0.4 ± 0.2 g
[1]; 100 nmol/kg, day 5 after administration
  daily food intake ration: 0.6 ± 0.2 g
[1]; 100 nmol/kg, day 6 after administration
  daily food intake ration: 0.7 ± 0.3 g
[1]; 100 nmol/kg, day 7 after administration
  daily food intake ration: 0.5 ± 0.2 g
[1]; 100 nmol/kg, day 8 after administration
  daily food intake ration: 0.7 ± 0.5 g
[1]; 100 nmol/kg, day 9 after administration
  daily food intake ration: 0.9 ± 0.6 g
[1]; 100 nmol/kg, day 10 after administration
  daily food intake ration: 0.9 ± 0.6 g
[1]; 100 nmol/kg, day 11 after administration
  daily food intake ration: 1.1 ± 0.5 g
[1]; 100 nmol/kg, day 12 after administration
  daily food intake ration: 2 ± 1 g
[1]; 100 nmol/kg, day 13 after administration
  daily food intake ration: 1.3 ± 0.7 g
[1]; 100 nmol/kg, day 14 after administration
  daily food intake ration: 1.7 ± 0.5 g
[1]; 100 nmol/kg, day 15 after administration
  daily food intake ration: 2 ± 0.4 g
[1]; 100 nmol/kg, day 16 after administration
  daily food intake ration: 1 ± 0.3 g
[1]; 100 nmol/kg, day 17 after administration
  daily food intake ration: 1.6 ± 0.3 g
[1]; 100 nmol/kg, day 18 after administration
  daily food intake ration: 2 ± 0.4 g
[1]; 100 nmol/kg, day 19 after administration
  daily food intake ration: 1.4 ± 0.2 g
[1]; 100 nmol/kg, day 20 after administration
  daily food intake ration: 1.8 ± 0.3 g
[1]; 100 nmol/kg, day 21 after administration
  daily food intake ration: 2.4 ± 0.3 g
[1]; 100 nmol/kg, day 22 after administration
  daily food intake ration: 1.4 ± 0.5 g
[1]; 100 nmol/kg, day 23 after administration
  daily food intake ration: 2.1 ± 0.5 g
[1]; 100 nmol/kg, day 24 after administration
  daily food intake ration: 2.3 ± 0.4 g
[1]; 100 nmol/kg, day 25 after administration
  daily food intake ration: 1.5 ± 0.3 g
[1]; 100 nmol/kg, day 26 after administration
  daily food intake ration: 1.6 ± 0.4 g
[1]; 100 nmol/kg, day 27 after administration
  daily food intake ration: 2.8 ± 0.3 g
[1]; 100 nmol/kg, day 28 after administration
  daily food intake ration: 1.2 ± 0.4 g
[1]; 100 nmol/kg, within 5 days after the administration
  cumulative food intake: 1.8 g
[2]; 10 nmol/kg, Day 0
  Concentration of fasting blood glucose (mMol/L, mean ± SD): 14.77 ± 1.30 mmol/L
  Concentration of random blood glucose (mMol/L, mean ± SD): 20.42 ± 1.56 mmol/L
[2]; 10 nmol/kg, Day 7
  Concentration of fasting blood glucose (mMol/L, mean ± SD): 6.05 ± 0.42 mmol/L
[2]; 10 nmol/kg, Day 10
  Concentration of random blood glucose (mMol/L, mean ± SD): 20.66 ± 1.48 mmol/L
[2]; 10 nmol/kg, Day 14
  Concentration of fasting blood glucose (mMol/L, mean ± SD): 6.30 ± 0.46 mmol/L
[2]; 10 nmol/kg, Day 17
  Concentration of random blood glucose (mMol/L, mean ± SD): 18.91 ± 1.33 mmol/L
[2]; 10 nmol/kg, Day 21
  Concentration of fasting blood glucose (mMol/L, mean ± SD): 7.89 ± 0.81 mmol/L
[2]; 10 nmol/kg, Day 24
  Concentration of random blood glucose (mMol/L, mean ± SD): 21.17 ± 2.07 mmol/L
[2]; 10 nmol/kg, Day 28
  Concentration of fasting blood glucose (mMol/L, mean ± SD): 9.41 ± 0.97 mmol/L
[2]; 10 nmol/kg
  Glycated hemoglobin (%, mean ± SD): 4.71 ± 0.23 %
[2]; 30 nmol/kg, Day 0
  Concentration of fasting blood glucose (mMol/L, mean ± SD): 14.13 ± 1.32 mmol/L
  Concentration of random blood glucose (mMol/L, mean ± SD): 16.73 ± 1.59 mmol/L
[2]; 30 nmol/kg, Day 7
  Concentration of fasting blood glucose (mMol/L, mean ± SD): 6.21 ± 0.26 mmol/L
[2]; 30 nmol/kg, Day 10
  Concentration of random blood glucose (mMol/L, mean ± SD): 15.88 ± 1.86 mmol/L
[2]; 30 nmol/kg, Day 14
  Concentration of fasting blood glucose (mMol/L, mean ± SD): 6.40 ± 0.57 mmol/L
[2]; 30 nmol/kg, Day 17
  Concentration of random blood glucose (mMol/L, mean ± SD): 17.30 ± 1.17 mmol/L
[2]; 30 nmol/kg, Day 21
  Concentration of fasting blood glucose (mMol/L, mean ± SD): 7.03 ± 0.52 mmol/L
[2]; 30 nmol/kg, Day 24
  Concentration of random blood glucose (mMol/L, mean ± SD): 17.43 ± 1.92 mmol/L
[2]; 30 nmol/kg, Day 28
  Concentration of fasting blood glucose (mMol/L, mean ± SD): 9.68 ± 1.03 mmol/L
[2]; 30 nmol/kg
  Glycated hemoglobin (%, mean ± SD): 4.53 ± 0.17 %
[2]; 100 nmol/kg, Day 0
  Concentration of fasting blood glucose (mMol/L, mean ± SD): 14.67 ± 1.46 mmol/L
  Concentration of random blood glucose (mMol/L, mean ± SD): 9.11 ± 1.25 mmol/L
[2]; 100 nmol/kg, Day 7
  Concentration of fasting blood glucose (mMol/L, mean ± SD): 5.85 ± 0.33 mmol/L
[2]; 100 nmol/kg, Day 10
  Concentration of random blood glucose (mMol/L, mean ± SD): 12.34 ± 1.12 mmol/L
[2]; 100 nmol/kg, Day 14
  Concentration of fasting blood glucose (mMol/L, mean ± SD): 6.25 ± 0.32 mmol/L
[2]; 100 nmol/kg, Day 17
  Concentration of random blood glucose (mMol/L, mean ± SD): 11.89 ± 1.15 mmol/L
[2]; 100 nmol/kg, Day 21
  Concentration of fasting blood glucose (mMol/L, mean ± SD): 6.13 ± 0.19 mmol/L
[2]; 100 nmol/kg, Day 24
  Concentration of random blood glucose (mMol/L, mean ± SD): 11.51 ± 0.95 mmol/L
[2]; 100 nmol/kg, Day 28
  Concentration of fasting blood glucose (mMol/L, mean ± SD): 7.89 ± 0.41 mmol/L
[2]; 100 nmol/kg, listed as 18#
  Glycated hemoglobin (%, mean ± SD): 3.78%
[2]; 100 nmol/kg, listed as #18
  Glycated hemoglobin (%, mean ± SD): 3.78 ± 0.13 %
